Data taken from patent US12281095B2, “Pesticidally active diazine-amide compounds” (SYNGENTA CROP PROTECTION AG, priority 2019, dated 2025).

Tests used:
Format in all cases: in vivo
[1] = tested on: Plutella xylostella (Diamondback Moth); assay: Example B13: Plutella xylostella (Diamondback Moth), artificial diet, 96-well; conditions: 216 h, application rate of 500 ppm, eggs/L1 larvae, 9 days after infestation
Experimental: Example B13: Plutella xylostella (Diamondback Moth)
96-well microtiter plates containing artificial diet were treated with aqueous test solutions, prepared from 10′000 ppm DMSO stock solutions, by a liquid handling robot. After drying, eggs (˜30 per well) were infested onto a netted lid which was suspended above the diet. The eggs hatch and L1 larvae move down to the diet. The samples were assessed for mortality 9 days after infestation.

[2] = tested on: Diabrotica balteata (Corn Root Worm); assay: Example B1: Diabrotica balteata (Corn Root Worm), sprayed maize sprouts; conditions: 96 h, application rate of 200 ppm, L2 larvae, 4 days after infestation, read-out: control in at least one of the two categories (mortality or growth inhibition)
Experimental: Example B1: Diabrotica balteata (Corn Root Worm)
Maize sprouts placed onto an agar layer in 24-well microtiter plates were treated with aqueous test solutions prepared from 10′000 ppm DMSO stock solutions by spraying. After drying, the plates were infested with L2 larvae (6 to 10 per well). The samples were assessed for mortality and growth inhibition in comparison to untreated samples 4 days after infestation.

[3] = tested on: Plutella xylostella (Diamond Back Moth); assay: Example B5: Plutella xylostella (Diamond Back Moth), artificial diet, 24-well; conditions: 192 h, application rate of 200 ppm, eggs, 8 days after infestation, read-out: control in at least one of the two categories (mortality or growth inhibition)
Experimental: Example B5: Plutella xylostella (Diamond Back Moth)
24-well microtiter plates with artificial diet were treated with aqueous test solutions prepared from 10′000 ppm DMSO stock solutions by pipetting. After drying, Plutella eggs were pipetted through a plastic stencil onto a gel blotting paper and the plate was closed with it. The samples were assessed for mortality and growth inhibition in comparison to untreated samples 8 days after infestation.

[4] = tested on: Spodoptera littoralis (Egyptian Cotton Leaf Worm); assay: Example B9: Spodoptera littoralis (Egyptian Cotton Leaf Worm), sprayed cotton leaf discs; conditions: foliar, 72 h, application rate of 200 ppm, L1 larvae, 3 days after infestation, read-out: control in at least one of the three categories (mortality, anti-feedant or growth inhibition)
[5] = tested on: Chilo suppressalis (Striped Rice Stemborer); assay: Example B4: Chilo suppressalis (Striped Rice Stemborer), artificial diet; conditions: 144 h, application rate of 200 ppm, L2 larvae, 6 days after infestation, read-out: control in at least one of the three categories (mortality, anti-feedant or growth inhibition)
Experimental: Example B4: Chilo suppressalis (Striped Rice Stemborer)
24-well microtiter plates with artificial diet were treated with aqueous test solutions prepared from 10′000 ppm DMSO stock solutions by pipetting. After drying, the plates were infested with L2 larvae (6-8 per well). The samples were assessed for mortality, anti-feeding effect, and growth inhibition in comparison to untreated samples 6 days after infestation. Control of Chilo suppressalis by a test sample is given when at least one of the categories mortality, anti-feedant effect, and growth inhibition is higher than the untreated sample.

[6] = tested on: Euschistus heros (Neotropical Brown Stink Bug); assay: Example B2: Euschistus heros (Neotropical Brown Stink Bug), sprayed soybean leaves; conditions: 120 h, application rate of 200 ppm, N2 nymphs, 5 days after infestation, read-out: control in at least one of the two categories (mortality or growth inhibition)
Experimental: Example B2: Euschistus heros (Neotropical Brown Stink Bug)
Soybean leaves on agar in 24-well microtiter plates were sprayed with aqueous test solutions prepared from 10′000 ppm DMSO stock solutions. After drying the leaves were infested with N2 nymphs. The samples were assessed for mortality and growth inhibition in comparison to untreated samples 5 days after infestation.

CC(NC(=O)c1cc(C(F)(F)F)nc(C2(C#N)CC2)c1)c1nccnc1-c1ccc(OCC(F)(F)F)cn1 (centres unmarked) [P23, 2-(1-cyanocyclopropyl)-N-[1-[3-[5-(2,2,2-trifluoroethoxy)-2-pyridyl]pyrazin-2-yl]ethyl]-6-(trifluoromethyl)pyridine-4-carboxamide]
≥ 80%: mortality at 500 ppm [1] | percent control (mortality or growth inhibition) at 200 ppm [2] | percent control (mortality or growth inhibition) at 200 ppm [3] | percent control (mortality, anti-feedant effect or growth inhibition) at 200 ppm [4] | percent control (mortality, anti-feedant effect or growth inhibition) at 200 ppm [5]

CC(NC(=O)c1cc(C(F)(F)F)cc(C2(C#N)CC2)c1)c1nccnc1-c1ccc(OCC(F)(F)F)cn1 (centres unmarked) [P24, 3-(1-cyanocyclopropyl)-N-[1-[3-[5-(2,2,2-trifluoroethoxy)-2-pyridyl]pyrazin-2-yl]ethyl]-5-(trifluoromethyl)benzamide]
≥ 80%: mortality at 500 ppm [1] | percent control (mortality or growth inhibition) at 200 ppm [2] | percent control (mortality or growth inhibition) at 200 ppm [3] | percent control (mortality, anti-feedant effect or growth inhibition) at 200 ppm [4] | percent control (mortality, anti-feedant effect or growth inhibition) at 200 ppm [5]

CC(NC(=O)c1cc(C(F)(F)F)cc(S(=O)(=O)C(F)(F)F)c1)c1nccnc1-c1ncc(OCC(F)F)cn1 (centres unmarked) [P28, N-[1-[3-[5-(2,2-difluoroethoxy)pyrimidin-2-yl]pyrazin-2-yl]ethyl]-3-(trifluoromethyl)-5-(trifluoromethylsulfonyl)benzamide]
≥ 80%: mortality at 500 ppm [1] | percent control (mortality or growth inhibition) at 200 ppm [6] | percent control (mortality or growth inhibition) at 200 ppm [2] | percent control (mortality or growth inhibition) at 200 ppm [3] | percent control (mortality, anti-feedant effect or growth inhibition) at 200 ppm [4] | percent control (mortality, anti-feedant effect or growth inhibition) at 200 ppm [5]

CC(NC(=O)c1cc(C2CC2)cc(C(F)(F)F)c1)c1nccnc1-c1ncc(OC(F)F)cn1 (centres unmarked) [P41, 3-cyclopropyl-N-[1-[3-[5-(difluoromethoxy)pyrimidin-2-yl]pyrazin-2-yl]ethyl]-5-(trifluoromethyl)benzamide]
≥ 80%: mortality at 500 ppm [1] | percent control (mortality or growth inhibition) at 200 ppm [2] | percent control (mortality or growth inhibition) at 200 ppm [3] | percent control (mortality, anti-feedant effect or growth inhibition) at 200 ppm [4] | percent control (mortality, anti-feedant effect or growth inhibition) at 200 ppm [5]

CC(NC(=O)c1cc(C(F)(F)F)cc(C(F)(F)C2CC2)c1)c1nccnc1-c1ncc(OC(F)F)cn1 (centres unmarked) [P29, 3-[cyclopropyl(difluoro)methyl]-N-[1-[3-[5-(difluoromethoxy)pyrimidin-2-yl]pyrazin-2-yl]ethyl]-5-(trifluoromethyl)benzamide]
≥ 80%: mortality at 500 ppm [1] | percent control (mortality or growth inhibition) at 200 ppm [6] | percent control (mortality or growth inhibition) at 200 ppm [2] | percent control (mortality or growth inhibition) at 200 ppm [3] | percent control (mortality, anti-feedant effect or growth inhibition) at 200 ppm [4] | percent control (mortality, anti-feedant effect or growth inhibition) at 200 ppm [5]

CC(NC(=O)c1cc(C(F)(F)F)cc(C2(C#N)CC2)c1)c1nccnc1-c1ccc(OCC(F)F)cn1 (centres unmarked) [P33, 3-(1-cyanocyclopropyl)-N-[1-[3-[5-(2,2-difluoroethoxy)-2-pyridyl]pyrazin-2-yl]ethyl]-5-(trifluoromethyl)benzamide]
≥ 80%: mortality at 500 ppm [1] | percent control (mortality or growth inhibition) at 200 ppm [2] | percent control (mortality or growth inhibition) at 200 ppm [3] | percent control (mortality, anti-feedant effect or growth inhibition) at 200 ppm [4] | percent control (mortality, anti-feedant effect or growth inhibition) at 200 ppm [5]
